Each structure is given as a SMILES string. Counter-ions that a name gives are not always drawn. Like-named read-outs stand apart in the source and are kept apart here.

Common to all, as to test: AK assay 384-well format, Prestwick library screening
Assay [1] deals with E. faecium. The assay is classed as cell-based, Enterococcus faecium. Particulars: 50 μM final drug concentration; for fold induction at 50 µM: Enterococcus faecium, 3 h.
For assay [2], the system named is S. aureus strain USA300-0114. The assay is classed as cell-based, Staphylococcus aureus. As to conditions: 50 μM final drug concentration; for fold induction at 50 µM: Staphylococcus aureus, USA300, 3 h.
In assay [3] the test system is K. pneumoniae. The format is cell-based, Klebsiella pneumoniae. Particulars: 50 μM final drug concentration; for fold induction at 50 µM: Klebsiella pneumoniae, 3 h.
The subject of assay [4] is A. baumannii strain 98-37-09. The format is cell-based, Acinetobacter baumannii. Particulars: 50 μM final drug concentration; for fold induction at 50 µM: Acinetobacter baumannii, 983709, 3 h.
For assay [5], the system named is P. aeruginosa. The assay is classed as cell-based, Pseudomonas aeruginosa. As to conditions: 50 μM final drug concentration; for fold induction at 50 µM: Pseudomonas aeruginosa, 3 h.
For assay [6], the system named is E. cloacae. The assay is classed as cell-based, Enterobacter cloacae. Particulars: 50 μM final drug concentration; for fold induction at 50 µM: Enterobacter cloacae, 3 h.
Assay [7] deals with E. coli. The assay is classed as cell-based, Escherichia coli. As to conditions: 50 μM final drug concentration; for fold induction at 50 µM: Escherichia coli, 3 h.
[8] abbreviates: planktonic, cutoff for positive 3-fold increase.

Take `CCN1C[C@]2(C)CC[C@H](O)[C@]34C1[C@@H](C[C@H]23)[C@@]1(O)C[C@H](OC)[C@H]2C[C@@H]4[C@@H]1[C@H]2O` [Karakoline]: the fold induction at 50 µM in assay [1] (planktonic, […], read-out: AK-based Prestwick Library Screening Results, E. faecium (fold increase in extracellular AK activity)) amounted to 1; in assay [2] (planktonic, […], read-out: AK-based Prestwick Library Screening Results, S. aureus (fold increase in extracellular AK activity)), 1.2; in assay [3] (planktonic, […], read-out: AK-based Prestwick Library Screening Results, K. pneumoniae (fold increase in extracellular AK activity)) it was 0.9; in assay [4] (planktonic, […], read-out: AK-based Prestwick Library Screening Results, A. baumannii (fold increase in extracellular AK activity)), 1; in assay [5] (planktonic, […], read-out: AK-based Prestwick Library Screening Results, P. aeruginosa (fold increase in extracellular AK activity)), 1.1; in assay [6] (planktonic, […], read-out: AK-based Prestwick Library Screening Results, E. cloacae (fold increase in extracellular AK activity)), 1.3. For the same molecule, the fold induction at 50 µM in assay [7] (planktonic, […], read-out: AK-based Prestwick Library Screening Results, E. coli (fold increase in extracellular AK activity)) was 1.
On to `Cc1cc2nc3c(=O)[nH]c(=O)nc-3n(C[C@H](O)[C@H](O)[C@H](O)CO)c2cc1C` [Riboflavine], for which the fold induction at 50 µM in assay [1] (planktonic, cutoff for positive 3-fold increase, read-out: AK-based Prestwick Library Screening Results, E. faecium (fold increase in extracellular AK activity)) was 1; in assay [2] (planktonic, cutoff for positive 3-fold increase, read-out: AK-based Prestwick Library Screening Results, S. aureus (fold increase in extracellular AK activity)), 0.9; in assay [3] (planktonic, cutoff for positive 3-fold increase, read-out: AK-based Prestwick Library Screening Results, K. pneumoniae (fold increase in extracellular AK activity)), 1.6; in assay [4] (planktonic, cutoff for positive 3-fold increase, read-out: AK-based Prestwick Library Screening Results, A. baumannii (fold increase in extracellular AK activity)), 1.2; in assay [5] (planktonic, cutoff for positive 3-fold increase, read-out: AK-based Prestwick Library Screening Results, P. aeruginosa (fold increase in extracellular AK activity)), 1.2; in assay [6] (planktonic, cutoff for positive 3-fold increase, read-out: AK-based Prestwick Library Screening Results, E. cloacae (fold increase in extracellular AK activity)), 1.5. In addition, the fold induction at 50 µM in assay [7] (planktonic, cutoff for positive 3-fold increase, read-out: AK-based Prestwick Library Screening Results, E. coli (fold increase in extracellular AK activity)) was 1.1.
`COC(=O)C1=C(C)NC(C)=C(C(=O)OC)C1c1ccccc1[N+](=O)[O-]` [Nifedipine]: the fold induction at 50 µM in assay [1] (planktonic E. faecium, 384-well, cutoff for positive-scoring molecules 3-fold increase, read-out: AK-based Prestwick Library Screening Results: E. faecium (increase in extracellular AK activity)) was found to be 0.9; in assay [2] (planktonic S. aureus, 384-well, cutoff for positive-scoring molecules 3-fold increase, read-out: AK-based Prestwick Library Screening Results: S. aureus (increase in extracellular AK activity)), 0.5; in assay [3] (planktonic K. pneumoniae, 384-well, cutoff for positive-scoring molecules 3-fold increase, read-out: AK-based Prestwick Library Screening Results: K. pneumoniae (increase in extracellular AK activity)), 0.9; in assay [4] (planktonic A. baumannii, 384-well, cutoff for positive-scoring molecules 3-fold increase, read-out: AK-based Prestwick Library Screening Results: A. baumannii (increase in extracellular AK activity)), 1.5; in assay [5] (planktonic P. aeruginosa, 384-well, cutoff for positive-scoring molecules 3-fold increase, read-out: AK-based Prestwick Library Screening Results: P. aeruginosa (increase in extracellular AK activity)), 1; in assay [6] (planktonic E. cloacae, 384-well, cutoff for positive-scoring molecules 3-fold increase, read-out: AK-based Prestwick Library Screening Results: E. cloacae (increase in extracellular AK activity)) it was 1.4. Moreover, in assay [7] (planktonic E. coli, 384-well, cutoff for positive-scoring molecules 3-fold increase, read-out: AK-based Prestwick Library Screening Results: E. coli (increase in extracellular AK activity)), the fold induction at 50 µM came out at 1.4.
With `CN(Cc1cnc2nc(N)nc(N)c2n1)c1ccc(C(=O)N[C@@H](CCC(=O)O)C(=O)O)cc1` (racemic) [Amethopterin (R,S)], in assay [1] (setting [8]), the “AK-based Prestwick Library Screening Results, E. faecium (fold increase in extracellular AK activity)” value amounted to 0.9. Further, the “AK-based Prestwick Library Screening Results, S. aureus (fold increase in extracellular AK activity)” value in assay [2] (setting [8]) was found to be 1.0. Also, the “AK-based Prestwick Library Screening Results, K. pneumoniae (fold increase in extracellular AK activity)” value in assay [3] (setting [8]) turned out to be 0.8. Moreover, in assay [4] (setting [8]), the “AK-based Prestwick Library Screening Results, A. baumannii (fold increase in extracellular AK activity)” value was determined as 0.9. Moreover, the “AK-based Prestwick Library Screening Results, P. aeruginosa (fold increase in extracellular AK activity)” value in assay [5] (setting [8]) was determined as 1.1. Moreover, the “AK-based Prestwick Library Screening Results, E. cloacae (fold increase in extracellular AK activity)” value in assay [6] (setting [8]) is 1.3. Besides, the “AK-based Prestwick Library Screening Results, E. coli (fold increase in extracellular AK activity)” value in assay [7] (setting [8]) was 1.1.
Regarding `CC1(C)S[C@@H]2[C@H](NC(=O)[C@H](N)c3ccccc3)C(=O)N2[C@H]1C(=O)OC1OC(=O)c2ccccc21` (stereo partly shown) [Talampicillin hydrochloride], the fold induction at 50 µM in assay [1] (planktonic E. faecium, […], read-out: AK-based Prestwick library screening result, E. faecium (fold increase in extracellular AK activity)) turned out to be 1.4; in assay [2] (planktonic S. aureus, […], read-out: AK-based Prestwick library screening result, S. aureus (fold increase in extracellular AK activity)), 1.2; in assay [3] (planktonic K. pneumoniae, […], read-out: AK-based Prestwick library screening result, K. pneumoniae (fold increase in extracellular AK activity)), 0.8; in assay [4] (planktonic A. baumannii, […], read-out: AK-based Prestwick library screening result, A. baumannii (fold increase in extracellular AK activity)), 0.8; in assay [5] (planktonic P. aeruginosa, […], read-out: AK-based Prestwick library screening result, P. aeruginosa (fold increase in extracellular AK activity)), 1.1; in assay [6] (planktonic E. cloacae, […], read-out: AK-based Prestwick library screening result, E. cloacae (fold increase in extracellular AK activity)), 1.6. Besides, in assay [7] (planktonic E. coli, […], read-out: AK-based Prestwick library screening result, E. coli (fold increase in extracellular AK activity)), the fold induction at 50 µM was 15.2.
Consider `CC(NCCc1ccc(O)cc1)C(O)c1ccc(O)cc1` (stereo not shown) [Ritodrine hydrochloride], for which the fold induction at 50 µM is 0.9 in assay [1] (planktonic E. faecium, cutoff for positive-scoring molecules 3-fold increase, read-out: AK-based Prestwick Library Screening Results, E. faecium (increase in extracellular AK activity)); 0.5 in assay [2] (planktonic S. aureus, cutoff for positive-scoring molecules 3-fold increase, read-out: AK-based Prestwick Library Screening Results, S. aureus (increase in extracellular AK activity)); 0.7 in assay [3] (planktonic K. pneumoniae, cutoff for positive-scoring molecules 3-fold increase, read-out: AK-based Prestwick Library Screening Results, K. pneumoniae (increase in extracellular AK activity)); 0.8 in assay [4] (planktonic A. baumannii, cutoff for positive-scoring molecules 3-fold increase, read-out: AK-based Prestwick Library Screening Results, A. baumannii (increase in extracellular AK activity)); 0.9 in assay [5] (planktonic P. aeruginosa, cutoff for positive-scoring molecules 3-fold increase, read-out: AK-based Prestwick Library Screening Results, P. aeruginosa (increase in extracellular AK activity)); 0.9 in assay [6] (planktonic E. cloacae, cutoff for positive-scoring molecules 3-fold increase, read-out: AK-based Prestwick Library Screening Results, E. cloacae (increase in extracellular AK activity)). Besides, in assay [7] (planktonic E. coli, cutoff for positive-scoring molecules 3-fold increase, read-out: AK-based Prestwick Library Screening Results, E. coli (increase in extracellular AK activity)), the fold induction at 50 µM stood at 0.8.
As to `Cc1c(-c2ccccc2)oc2c(C(=O)OCCN3CCCCC3)cccc2c1=O` [Flavoxate hydrochloride], the fold induction at 50 µM came out at 0.9 in assay [1] (384-well format, cutoff for positive-scoring molecules 3-fold increase, read-out: AK-based Prestwick Library Screening Results, E. faecium (increase in extracellular AK activity)); 0.6 in assay [2] (384-well format, cutoff for positive-scoring molecules 3-fold increase, read-out: AK-based Prestwick Library Screening Results, S. aureus (increase in extracellular AK activity)); 0.6 in assay [3] (384-well format, cutoff for positive-scoring molecules 3-fold increase, read-out: AK-based Prestwick Library Screening Results, K. pneumoniae (increase in extracellular AK activity)); 0.5 in assay [4] (384-well format, cutoff for positive-scoring molecules 3-fold increase, read-out: AK-based Prestwick Library Screening Results, A. baumannii (increase in extracellular AK activity)); 0.6 in assay [5] (384-well format, cutoff for positive-scoring molecules 3-fold increase, read-out: AK-based Prestwick Library Screening Results, P. aeruginosa (increase in extracellular AK activity)); 0.6 in assay [6] (384-well format, cutoff for positive-scoring molecules 3-fold increase, read-out: AK-based Prestwick Library Screening Results, E. cloacae (increase in extracellular AK activity)). The fold induction at 50 µM in assay [7] (384-well format, cutoff for positive-scoring molecules 3-fold increase, read-out: AK-based Prestwick Library Screening Results, E. coli (increase in extracellular AK activity)) was determined as 0.5.

The record behind these values is US10004701B2, “Methods and compositions for treating infection” (UNIVERSITY OF ROCHESTER, priority 2012, dated 2018).
